Measured values taken from the METLIN SMRT retention time set (Domingo-Almenara et al. 2019).

Assay: gradient 5% acetonitrile 3 min, to 50% in 2 min, to 85% in 15 min, held 3 min, 100 µL/min
Details: column: Zorbax Extend-C18 2.1 x 50 mm; eluents: water / acetonitrile, 0.1% formic acid
Procedure, shortened: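 Retention times come from adduct peaks that were picked computationally and then checked by hand. The standards, pure and pooled in mixtures of ~100 molecules, were run on a Zorbax Extend-C18 column (2.1 × 50 mm, 1.8 μm) at 100 μL/min with water and acetonitrile, each with 0.1% formic acid. Detection was by quadrupole time-of-flight mass spectrometry in positive and negative ionization mode, with a dead volume of 40 μL and a dwell volume of 900 μL.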

Row | RP-LC retention time | SMILES
1 | 1350 s | CCOC(=O)c1c(C)oc2ncnc(NCCN3CCCc4ccccc43)c12
2 | 662 s | CC(C)NC(=O)c1n[nH]c2c1CCCC2
3 | 1090 s | Cn1nc(-c2nnc(-c3ccccc3F)o2)c2c1CCN(S(=O)(=O)c1ccc3c(c1)CCCC3)C2
4 | 639 s | Cc1ccc(N2CCN(Cc3nc4nc(C)cc(N5CCCC5)n4n3)CC2)cc1
5 | 816 s | COc1ccc(OC)c(NC(=O)C(C)Oc2ccc(=O)n(-c3ccc(F)cc3)n2)c1 (stereo not drawn)
6 | 814 s | COc1cccc(Cn2nc3c(S(=O)(=O)N4CCCC4)cccn3c2=O)c1
7 | 892 s | Cc1ccc(-c2cn3c(CC(=O)NCc4ccc(Cl)cc4)csc3n2)cc1C
8 | 818 s | COc1ccc(NC(=O)C2CC(=O)N(CCc3c[nH]c4ccc(Cl)cc34)C2)cc1 (stereo not drawn)
9 | 1060 s | CCCN1C(=O)c2cc(S(=O)(=O)Nc3cccc(F)c3)ccc2Oc2cccnc21
10 | 984 s | COc1ccc(Cl)cc1NC(=O)Cn1c(=O)n(-c2ccc(C)cc2)c(=O)c2c1cc(C)n2C
11 | 1070 s | COCCn1cc2c3c(cccc31)CN(C(=O)Nc1cccc(Cl)c1C)CC2
12 | 572 s | Cc1cc(OCC(=O)NCc2ccco2)nc(N2CCCCCC2)n1
13 | 687 s | COc1ccc(S(=O)(=O)Nc2cc(-c3cn4ccc(C)cc4n3)ccc2C)cc1C
14 | 967 s | CCOc1ccccc1NC(=O)Cn1c(N2CCOCC2)nc(COC)cc1=O
15 | 586 s | CCOC(=O)C1CCN(C(=O)CCC2CCN(c3cc(NC4CC4)ncn3)CC2)CC1
16 | 886 s | O=C(c1cn(-c2cc(N3CCSCC3)ncn2)cn1)N1CCc2ccccc2C1
17 | 853 s | CCOc1ccc(N2CCCCn3c2nc2c3c(=O)n(CCOC)c(=O)n2C)cc1
18 | 784 s | O=C([C@@H]1C[C@H](Oc2ccccc2)CN1C(=O)C1CCCC1)N1CCCC1
19 | 1120 s | O=C(Cn1nc(N2CCCCCC2)c2ccccc2c1=O)NC1CCc2ccccc21 (stereo not drawn)
20 | 777 s | Cc1ccc2nc(-c3c(F)cccc3Cl)c(Nc3ccccc3C)n2c1
21 | 1060 s | COC(=O)c1c(NC(=O)CSc2nnnn2-c2ccccc2OC)sc2c1CCC2
22 | 799 s | CCOc1ccc(NC(=O)CN2CCN(Cc3ccc(C)cc3)C(=O)C2=O)cc1

Row | RP-LC retention time | SMILES
23 | 781 s | CC(C)NC(=O)CN1C(=O)C2CCCCN2c2ccc(S(=O)(=O)N(C)C)cc21 (stereo not drawn)
24 | 645 s | COc1ccc(NC(=O)CCC2CCCN(c3cc(NC4CC4)ncn3)C2)cc1OC (stereo not drawn)
25 | 925 s | CCc1csc(-c2ccc(N3CCN(C(=O)Cc4ccc(F)cc4)CC3)nc2)n1
26 | 794 s | CCc1ccc(NS(=O)(=O)c2ccc3c(c2)CCCC(=O)N3)cc1
27 | 902 s | O=C(NCC1CC1)c1sc2ncccc2c1-n1cccc1
28 | 559 s | Cc1ccc(CN2CC(=O)N(CCc3ccccn3)C(c3cccs3)C2=O)cc1 (stereo not drawn)
29 | 797 s | CC1CCC(NC(=O)C2CCN(S(=O)(=O)c3cc(C(=O)N(C)C)cs3)CC2)CC1 (stereo not drawn)
30 | 750 s | O=C1CCCc2cc(S(=O)(=O)N3CCCN(Cc4ccccc4Cl)C3)ccc2N1
31 | 658 s | Cc1cccc(NS(=O)(=O)c2cc3n(c2)CCCNC3=O)c1C
32 | 767 s | CCOc1ccccc1NC(=O)C1CC(=O)N(c2n[nH]c3ccccc23)C1 (stereo not drawn)
33 | 998 s | Cc1ccc(-c2nnc(-c3nn(C)c4c3CN(S(=O)(=O)c3cccc(C)c3)CC4)o2)cc1
34 | 727 s | COCc1cc2nn(CC(=O)NC3CCCC3)c(=O)n2c(-c2ccccc2)n1
35 | 651 s | CCOC(=O)N1CCN(C(=O)c2sc(NS(=O)(=O)c3ccccc3)nc2C)CC1
36 | 852 s | COc1cccc(CNC(=O)c2ccc3c(c2)N(C)C(=O)c2ccccc2O3)c1
37 | 577 s | Cc1ncsc1CN1CCCC(c2nc(-c3cnccn3)no2)CCNC(=O)CC1 (stereo not drawn)
38 | 792 s | COC(=O)C(C)NC(=O)NCc1cccn1Cc1cccc(F)c1 (stereo not drawn)
39 | 520 s | Cc1nnc(NC(=O)CNC(=O)c2ccc(=O)[nH]c2)s1
40 | 1140 s | O=c1c2cc(-c3ccccc3Cl)nn2cnn1Cc1nc(-c2ccc(F)cc2)no1
41 | 811 s | CCC(CC)C(=O)N1CCCN(C2=NS(=O)(=O)C(c3ccc(F)cc3)=C2C)CC1
42 | 735 s | COC(=O)c1c(C)[nH]c(C(=O)N2CCC(CC(=O)NCc3cccc(F)c3)CC2)c1C
43 | 1250 s | CC1CCN(c2nn(CC(=O)Nc3ccc4c(c3)CCC4)c(=O)c3ccccc23)CC1
44 | 933 s | O=C(NCc1ccc(F)cc1Cl)C1=C2CCCN2c2ccc(F)cc2S1(=O)=O

Row | RP-LC retention time | SMILES
45 | 678 s | CCOC(=O)CC(=O)CSc1nnc(CNC(=O)c2ccc(F)cc2)o1
46 | 882 s | COCCNC(=O)NC1CCN(c2nc3cccnc3n(Cc3ccc(C)cc3)c2=O)CC1
47 | 861 s | Cc1[nH]c(C(=O)N2CCCC(C(=O)NC3CCCCC3)C2)c(C)c1C(=O)OC(C)C (stereo not drawn)
48 | 933 s | O=C(Nc1ccc(F)cc1F)C1CCCN(S(=O)(=O)Cc2ccccc2)C1 (stereo not drawn)
49 | 656 s | O=C(OCCN1CCN(C2=NS(=O)(=O)c3ccccc32)CC1)c1ccccc1
50 | 750 s | CCOc1ccc(S(=O)(=O)N2CCC(C(=O)NCC3CCCO3)CC2)cc1 (stereo not drawn)
51 | 645 s | O=S(=O)(c1ccc2c(c1)OCCO2)N1CCC(CN2CCCCCC2)CC1
52 | 604 s | COc1cc(=O)c(C(=O)N2CCC(C(N)=O)CC2)nn1-c1ccc(C)cc1
53 | 1040 s | Cc1c(Cl)cccc1NC(=O)C1CCN(c2c(C(=O)N3CCC(C)CC3)cnc3snc(C)c23)CC1
54 | 945 s | CCc1nc(-c2nnn(-c3ccc(C)cc3)c2C)no1
55 | 727 s | O=C(NC1CCN(Cc2ccccc2)CC1)c1ccc(I)cc1
56 | 685 s | O=C(NC1CC1)[C@@H]1C[C@H](Oc2ccccc2)CN1C(=O)c1n[nH]c(=O)c2ccccc12
57 | 951 s | Cc1ccc(S(=O)(=O)N2C(=O)CCC2C(=O)NCc2nc(-c3ccc(Cl)cc3)no2)cc1 (stereo not drawn)
58 | 723 s | CC(C)Sc1cc(NCCCO)c([N+](=O)[O-])c2nonc12
59 | 1050 s | CCOc1ccc(S(=O)(=O)c2ccc(C)cc2)c2c1no[n+]2[O-]
60 | 581 s | O=C(c1cc(Cl)ccc1Cl)N1CCN(CC(O)c2cccs2)CC1 (stereo not drawn)
61 | 852 s | O=C(NCC1(c2ccccc2)CCOCC1)c1cccc(C(F)(F)F)c1
62 | 792 s | O=c1n(CCOc2ccccc2)nc2ccc(S(=O)(=O)N3CCOCC3)cn12
63 | 651 s | Nn1nnc2ccccc21
64 | 876 s | CCc1ccc(S(=O)(=O)N2CCN(c3cc(C)nc(NC4CCCCC4)n3)CC2)cc1
65 | 926 s | Cc1sc(NC(=O)Cc2ccccc2)nc1-c1ccc2c(c1)N(C)C(=O)CO2
66 | 887 s | O=C(Nc1nnc(SCc2nnc(-c3cccc(F)c3)o2)s1)c1ccccc1

Row | RP-LC retention time | SMILES
67 | 950 s | O=C(Nc1ccccc1F)C1CCCN(S(=O)(=O)Cc2ccccc2)C1 (stereo not drawn)
68 | 982 s | CCOc1ccc(NC(=O)C2CCCN(S(=O)(=O)c3cc(-c4noc(C)n4)cs3)C2)cc1 (stereo not drawn)
69 | 723 s | Cc1noc(-c2nn(C)c3c2CN(C(=O)Nc2ccc(F)cc2)CC3)n1
70 | 673 s | COC(=O)c1cccc(NC(=O)c2[nH]c3cc(C)sc3c2CN2CCOCC2)c1
71 | 909 s | CCc1noc(NC(C)=O)c1-c1ccc(C)c(S(=O)(=O)NC2CCCCCC2)c1
72 | 1020 s | COc1ccccc1NC(=O)C1CCN(S(=O)(=O)c2cc(-c3noc(C4CC4)n3)cs2)CC1
73 | 643 s | COC(=O)c1ncoc1-c1ccccc1C(=O)N1CCCC1
74 | 594 s | COc1ccc(-c2[nH]ncc2CN2CC(F)(F)C[C@H]2CN2CCOCC2)cc1OC
75 | 853 s | COCCCNC(=O)C1CCN(c2ccc(Sc3ccc(C(C)C)cc3)nn2)CC1
76 | 934 s | COc1ccc(-c2noc(C3CC(=O)N(c4cccc(Cl)c4)C3)n2)cc1OC (stereo not drawn)
77 | 661 s | COc1ccc(CNC(=O)C2CC(=O)N(c3n[nH]c4cccc(F)c34)C2)cc1OC (stereo not drawn)
78 | 612 s | O=C(CCc1csc2nc(C3CC3)cn12)NCc1ccc(OC(F)(F)F)cc1
79 | 741 s | CC(C)N1CCN(Cc2ccc(C(=O)NCc3ccc(C(F)(F)F)cc3)cc2)C(=O)C1=O
80 | 762 s | CCSc1ccc(-c2cccc(NC(=O)COC)c2)nn1
81 | 698 s | O=C(c1cc2c(s1)-c1ccsc1CC2)N1CCN(c2ccccn2)CC1
82 | 1120 s | COc1ccc(-c2noc(Cn3cnc4c(cnn4-c4ccc(Cl)cc4)c3=O)n2)cc1
83 | 645 s | CCc1nc2c(c(=O)n1CC(=O)Nc1c(C)cccc1C)CN(Cc1ccccc1)CC2
84 | 637 s | CC(=O)Nc1ccc(C2(C(=O)O)CCC2)cc1
85 | 721 s | CCC(=O)Nc1ccc(-n2cnc(C(=O)N3CCc4ccccc4C3)c2)nc1
86 | 710 s | Cc1ccc(NC(=O)N2CC(c3nc(C(C)C)nn3C)C2)cc1C

Row | SMILES | RP-LC retention time
87 | C[C@H]1C2Cc3ccc(O)cc3[C@@]1(C)CCN2CC1CC1 | 669 s
88 | CC(C)(C)NC[C@H](O)COc1cccc2[nH]c(C#N)cc12 | 663 s
